The values that follow come from publication PMC12452389, “Arginine-Derived Cationic Surfactants Containing Phenylalanine and Tryptophan: Evaluation of Antifungal Activity, Biofilm Eradication, Cytotoxicity, and Ecotoxicity” (Journal of Xenobiotics, 2025).

Series [1] relates to S. aureus SH1000. More on the design: method as in PMID 19889790. To be noted: cited from earlier work.
Series [2] has as its system S. aureus SH1000. Set-up: method as in PMID 19889790. As to conditions: cited from earlier work. The source holds these as a separate data set.
Series [3] relates to erythrocytes. Nature of the series: Hemolytic activity assay. It counts as cell-based. As to conditions: rabbit erythrocytes. The procedure: Fresh rabbit blood was obtained from the Animal Facility of the CID-CSIC (Research and Development Center, Spanish National Research Council, Barcelona, Spain). Sample collection was conducted in strict compliance with the bioethical guidelines established under Spanish legislation. Erythrocytes were isolated by centrifugation (3000 rpm/10 min). The supernatant was discarded, and the erythrocytes were washed three times with PBS (phosphate-buffered saline, pH 7.4) and then resuspended in PBS at a concentration of 8 × 10^9 cells/mL. Subsequently, varying volumes of a concentrated surfactant solution were added to Eppendorf tubes containing 25 μL of erythrocyte suspension. PBS was then added to bring the total volume to 1 mL. The samples were gently shaken for 10 min at room temperature and centrifuged at 10,000 rpm for 5 min. Hemolysis was evaluated by measuring the absorbance of the supernatant at 540 nm and comparing it to that of a 100% hemolysis control (erythrocytes treated with distilled water). The HC50, defined as the surfactant concentration that induces 50% hemolysis, was determined from the concentration–response curves: % hemolysis= Abstest compound/AbsBasal haemolytic activity ×100

A short description of series [4]: cmc by conductivity. Type of series: physicochemical. As to conditions: conductivity measurements; BAC mixture C12 (70%) and C14 (30%).
The test system of series [5] is Daphnia magna. The series is described as follows: Acute toxicity, immobilization test. Type of series: in vivo. As to conditions: Daphnia magna immobilization, 48 h of exposure; 95% confidence intervals in parentheses. The procedure:
Aquatic toxicity evaluation was performed using Daphnia magna following established protocols. This bioassay method employs laboratory-cultured freshwater microcrustaceans to evaluate surfactant toxicity in aquatic environments. Test organisms were utilized during their initial 24 h life stage to ensure consistency. The endpoint measurement focused on mobility impairment, specifically the loss of swimming capability after gentle stimulation lasting 15 s. Testing conditions included controlled water chemistry parameters: pH maintained at 8.0, calcium-to-magnesium ratio of 4:1, and total hardness of 250 mg/L as CaCO3. All experiments were conducted under dark conditions at 20 °C. The experimental design incorporated ten test concentrations for each surfactant compound, distributed in geometric progression. Each concentration level included 20 Daphnia specimens distributed across four replicate groups of five organisms each. Mobility assessment occurred at 48 h post-exposure, with immobilization percentages plotted against concentration using probability–logarithmic scaling.

Series [6] relates to Candida rugosa ATCC 10571. The series is described as follows: MIC broth microdilution. It counts as cell-based. As to conditions: C. rugosa. The procedure:
(§1) The antimicrobial activity of these compounds was assessed against selected yeast and bacterial strains: Candida albicans ATCC 90028 (CA9), Candida rugosa ATCC 10571 (CR), Candida glabrata ATCC 66032 (CG), Candida parapsilosis ATCC 22019 (CP), Candida tropicalis ATCC 7349 (CT), Candida auris ATCC 21092 (CA), and Cyberlindnera jadinii ATCC 60459. Frozen yeast stocks were plated on Sabouraud agar (SBA) and incubated at 30 °C for 24 h. Three to four colonies from each strain were then suspended in RPMI 1640 (Roswell Park Memorial Institute medium, Sigma- Aldrich, Merck, Darmstadt, Germany) to prepare bacterial dispersions of ~1.5 × 10^6 CFU/mL.
(§2) A broth microdilution assay was used to calculate MIC values. Twofold serially diluted compounds in RPMI 1640 medium (from 256 to 2 μg/mL), were dispensed (100 μL per well) into a 96-well plate. Then, 100 μL of a yeast starter culture was added to each well to reach a final inoculum of 7.5 × 10^5 CFU/mL. Wells containing only nutrient broth without the tested surfactant served as growth controls. Microbial growth was assessed by turbidity, which reflects increases in biomass and cell count. […] To confirm the obtained MICs, 20 μL of 0.015% (w/v) resazurin was dispensed to each well and incubated for 3 h at 30 °C. Metabolic activity was evidenced by a color change from blue to pink, thereby confirming the MIC value.
On the technique in general: In broth dilution the organism is exposed to a series of concentrations in liquid medium.

For series [7], the system named is Candida parapsilosis ATCC 22019. The series is described as follows: MIC broth microdilution. It counts as cell-based. To be noted: C. parapsilosis. The procedure:
as §1, §2

For series [8], the system named is Candida glabrata ATCC 66032. The series is described as follows: MIC broth microdilution. It counts as cell-based. To be noted: C. glabrata. The procedure:
as §1, §2

The subject of series [9] is Candida auris ATCC 21092. Nature of the series: MIC broth microdilution. It counts as cell-based. To be noted: C. auris. The procedure: as §1, §2
Series [10] relates to Cyberlindnera jadinii ATCC 60459 (C. jardinii). The series is described as follows: MIC broth microdilution. Type of series: cell-based. As to conditions: C. jardinii. The procedure: as §1, §2
In series [11] the test system is Candida albicans ATCC 90028. The series is described as follows: MIC broth microdilution. It counts as cell-based. To be noted: C. albicans. The procedure:
as §1, §2

Series [12] has as its system Candida tropicalis ATCC 7349. Nature of the series: MIC broth microdilution. Type of series: cell-based. To be noted: C. tropicalis. The procedure: as §1, §2
Where [13] appears, read: value in parentheses, read-out: MIC.

In brackets after ≈: the same amount, converted by molar mass. Read-outs that look alike come from different tables or passages of the source.

For the molecule `CCCCCCCCCCCCCCCC[N+](C)(C)C.[Br-]` [CTAB], in [1], the MIC (usually the lowest concentration found to suppress growth) is reported as 2 µg/mL. The MBEC in [2] was above 256 µg/mL.
As for `[H]/N=C(\N/C(=N/[H])NCCCCCCNC(=N)NC(=N)Nc1ccc(Cl)cc1)Nc1ccc(Cl)cc1` [chlorhexidine], the MIC in series [1] is 1 µg/mL (≈ 1.98 µM). Also, the MBEC in series [2] is listed as above 256 µg/mL.
As to `O=C(O)c1cn(C2CC2)c2cc(N3CCNCC3)c(F)cc2c1=O` [ciprofloxacin], in series [1], the MIC is 4 µg/mL (≈ 12.1 µM). Besides, the MBEC in series [2] is above 256 µg/mL.
For `CN(C)[C@@H]1C(O)=C(C(N)=O)C(=O)[C@@]2(O)C(O)=C3C(=O)c4c(O)cccc4[C@@](C)(O)[C@H]3C[C@@H]12` [tetracycline], the MIC in series [1] is recorded as 0.5 µg/mL (≈ 1.13 µM). For the same molecule, in series [2], the MBEC is on record as above 256 µg/mL.
Take “benzalkonium chloride [BAC, reference compound]”: the HC50 (as a rule, the concentration that lyses half of the red blood cells) in [3] (10 min, room temperature) came to 31 ± 0.3 µg/mL; in [3] (value in parentheses) it was 92 ± 0.8 µM. Also, the cmc in series [4] is reported as 5.2 mM. For the same molecule, the EC50 in series [5] is on record as 0.039 (0.023–0.05) μg/mL. Further, the MIC in series [6] (RPMI 1640, 24 h, 30 °C) came to 8 µg/mL; in series [6] (setting [13]), 24 µM; in series [7] (RPMI 1640, 24 h, 30 °C), 4 µg/mL; in series [7] (setting [13]) it was 12 µM; in series [8] (RPMI 1640, 24 h, 30 °C) it was 8 µg/mL; in series [8] (setting [13]), 24 µM. Further, the MIC was found to be 32 µg/mL in [9] (RPMI 1640, 24 h, 30 °C); 98 µM in series [9] (setting [13]); 16 µg/mL in [10] (RPMI 1640, 24 h, 30 °C); 48 µM in [10] (setting [13]); 8 µg/mL in [11] (RPMI 1640, 24 h, 30 °C); 24 µM in series [11] (setting [13]). Moreover, the minimal inhibitory concentration (MIC) in series [12] (RPMI 1640, 24 h, 30 °C) came to 4 µg/mL; in series [12] (setting [13]) it was 12 µM.
